# Assay results as given in PubChem BioAssay AID330 (DTP/NCI, 2004).
# Several values for one entry are separate records, joined by “and”; a condition that tells them apart may be missing. Equal values may be shown once. Toxic doses and inconclusive results are not listed.
# Tested on: P388 leukemia ip, CD2F1 mice, survival T/C
# Assay: NCI In Vivo Anticancer Drug Screen. Data for tumor model P388 Leukemia (intraperitoneal) in CD2F1 (CDF1) mice
# Conditions: endpoint: median survival time, higher = longer survival
# In short: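 Mice carrying the transplanted tumor received test compound or vehicle. Survival was recorded in each group, and the value is the treated-group measurement divided by that of the vehicle-treated control group.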
# [1] = dose: 100.0 mg/kg/injection, schedule: Q01DX001 (ip), vehicle: Klucel (hydroxypropylcellulose) (HPC)
# [2] = dose: 200.0 mg/kg/injection, schedule: Q01DX001 (ip), vehicle: Klucel (hydroxypropylcellulose) (HPC)
# [3] = dose: 100.0 mg/kg/injection, schedule: Q04DX003 (ip), vehicle: saline
# [4] = dose: 50.0 mg/kg/injection, schedule: Q01DX005 (ip), vehicle: Klucel (hydroxypropylcellulose) (HPC)
# [5] = dose: 100.0 mg/kg/injection, schedule: Q01DX005 (ip), vehicle: Klucel (hydroxypropylcellulose) (HPC)
# [6] = dose: 200.0 mg/kg/injection, schedule: Q01DX005 (ip), vehicle: Klucel (hydroxypropylcellulose) (HPC)
# [7] = dose: 60.0 mg/kg/injection, schedule: Q01DX005 (ip), vehicle: saline with Tween-80
# [8] = dose: 120.0 mg/kg/injection, schedule: Q01DX005 (ip), vehicle: saline with Tween-80
# [9] = dose: 240.0 mg/kg/injection, schedule: Q01DX005 (ip), vehicle: saline with Tween-80
# [10] = dose: 50.0 mg/kg/injection, schedule: Q01DX005 (ip), vehicle: saline
# [11] = dose: 100.0 mg/kg/injection, schedule: Q01DX005 (ip), vehicle: saline
smiles,measurement,setting,value
c1ccc2c(c1)CCNC2C1NCCc2ccccc21 (configuration not stated),T/C,"dose: 12.5 mg/kg/injection, schedule: Q01DX009 (ip), vehicle: Klucel (hydroxypropylcellulose) (HPC)",107 % of control
same,T/C,"dose: 25.0 mg/kg/injection, schedule: Q01DX009 (ip), vehicle: Klucel (hydroxypropylcellulose) (HPC)",100 % of control
same,T/C,"dose: 50.0 mg/kg/injection, schedule: Q01DX009 (ip), vehicle: Klucel (hydroxypropylcellulose) (HPC)",104 % of control
same,T/C,[1],109 % of control
same,T/C,"dose: 100.0 mg/kg/injection, schedule: Q01DX009 (ip), vehicle: Klucel (hydroxypropylcellulose) (HPC)",105 % of control and 91 % of control
same,T/C,[2],107 % of control
O=c1[nH]nc(-c2ccc(Cl)cc2)c2cc(Cl)c(Cl)cc12,T/C,"dose: 3.12 mg/kg/injection, schedule: Q04DX002 (ip), vehicle: distilled water + Tween-80",90 % of control
same,T/C,"dose: 6.25 mg/kg/injection, schedule: Q04DX002 (ip), vehicle: distilled water + Tween-80",96 % of control
same,T/C,"dose: 12.5 mg/kg/injection, schedule: Q04DX002 (ip), vehicle: distilled water + Tween-80",93 % of control
same,T/C,"dose: 25.0 mg/kg/injection, schedule: Q04DX002 (ip), vehicle: distilled water + Tween-80",93 % of control
same,T/C,"dose: 50.0 mg/kg/injection, schedule: Q04DX002 (ip), vehicle: distilled water + Tween-80",90 % of control
same,T/C,"dose: 100.0 mg/kg/injection, schedule: Q04DX002 (ip), vehicle: distilled water + Tween-80",95 % of control
same,T/C,"dose: 200.0 mg/kg/injection, schedule: Q04DX002 (ip), vehicle: distilled water + Tween-80",102 % of control
Cn1cnc2cc3c(cc2c1=O)nc1n3CCCC1,T/C,[3],102 % of control
same,T/C,"dose: 200.0 mg/kg/injection, schedule: Q04DX003 (ip), vehicle: saline",95 % of control
CCCCOC(=O)/C=C/C(=O)N1CC(C)N(C(=O)/C=C/C(=O)OCCCC)CC1C (configuration not stated),T/C,[4],105 % of control
same,T/C,[5],100 % of control
same,T/C,[6],100 % of control
O=c1ccc2c(O)c3ccoc3cc2o1,T/C,[1],101 % of control
same,T/C,[2],111 % of control
same,T/C,"dose: 400.0 mg/kg/injection, schedule: Q01DX001 (ip), vehicle: Klucel (hydroxypropylcellulose) (HPC)",106 % of control
Fc1cccc(F)c1C(Nc1nncs1)Nc1nncs1,T/C,[7],108 % of control
same,T/C,[8],109 % of control
same,T/C,[9],160 % of control
O=S(=O)(F)c1cccc(Cl)c1C[P+](c1ccccc1)(c1ccccc1)c1ccccc1,T/C,"dose: 15.0 mg/kg/injection, schedule: Q01DX005 (ip), vehicle: saline with Tween-80",112 % of control
O=c1ccocc1OC1OC(CO)C(O)C(O)C1O (configuration not stated),T/C,"dose: 5.75 mg/kg/injection, schedule: Q01DX005 (ip), vehicle: saline",95 % of control
same,T/C,"dose: 11.5 mg/kg/injection, schedule: Q01DX005 (ip), vehicle: saline",113 % of control
same,T/C,"dose: 23.0 mg/kg/injection, schedule: Q01DX005 (ip), vehicle: saline",106 % of control
same,T/C,"dose: 46.0 mg/kg/injection, schedule: Q01DX005 (ip), vehicle: saline",105 % of control
O=c1c(F)cn(C(c2ccccc2)c2ccccc2)c(=O)n1C(c1ccccc1)c1ccccc1,T/C,"dose: 12.5 mg/kg/injection, schedule: Q01DX009 (ip), vehicle: suspension in saline",101 % of control
same,T/C,"dose: 18.75 mg/kg/injection, schedule: Q01DX009 (ip), vehicle: suspension in saline",115 % of control
same,T/C,"dose: 25.0 mg/kg/injection, schedule: Q01DX009 (ip), vehicle: suspension in saline",106 % of control
same,T/C,"dose: 37.5 mg/kg/injection, schedule: Q01DX009 (ip), vehicle: suspension in saline",97 % of control
same,T/C,"dose: 50.0 mg/kg/injection, schedule: Q01DX009 (ip), vehicle: suspension in saline",100 % of control
same,T/C,"dose: 75.0 mg/kg/injection, schedule: Q01DX009 (ip), vehicle: suspension in saline",101 % of control and 115 % of control
same,T/C,"dose: 150.0 mg/kg/injection, schedule: Q01DX009 (ip), vehicle: suspension in saline",97 % of control
CC(C)(C)c1cc2c3c(c1)C(C)(C)OS314(OC2=O)OC(=O)c2cc(C(C)(C)C)cc(c21)C(C)(C)O4,T/C,"dose: 25.0 mg/kg/injection, schedule: Q01DX001 (ip), vehicle: saline with Tween-80",111 % of control
same,T/C,"dose: 50.0 mg/kg/injection, schedule: Q01DX001 (ip), vehicle: saline with Tween-80",92 % of control
same,T/C,"dose: 100.0 mg/kg/injection, schedule: Q01DX001 (ip), vehicle: saline with Tween-80",100 % of control
O=C1OC(c2ccccc2)N(c2ccccc2)C(=O)C1Cc1ccccc1 (configuration not stated),T/C,"dose: 60.0 mg/kg/injection, schedule: Q01DX005 (ip), vehicle: Klucel (hydroxypropylcellulose) (HPC)",103 % of control
same,T/C,"dose: 120.0 mg/kg/injection, schedule: Q01DX005 (ip), vehicle: Klucel (hydroxypropylcellulose) (HPC)",98 % of control
same,T/C,"dose: 240.0 mg/kg/injection, schedule: Q01DX005 (ip), vehicle: Klucel (hydroxypropylcellulose) (HPC)",110 % of control
CCCCCC1OC1CC1OC1CCCCCCCC(=O)O (configuration not stated),T/C,"dose: 50.0 mg/kg/injection, schedule: Q01DX009 (ip), vehicle: saline",99 % of control
same,T/C,"dose: 100.0 mg/kg/injection, schedule: Q01DX009 (ip), vehicle: saline",90 % of control
same,T/C,"dose: 200.0 mg/kg/injection, schedule: Q01DX009 (ip), vehicle: saline",86 % of control
O=c1c(N=Nc2nc3ccccc3s2)c(O)n(-c2ccccc2)c(=S)n1-c1ccccc1,T/C,"dose: 60.0 mg/kg/injection, schedule: Q01DX005 (ip), vehicle: saline",109 % of control
same,T/C,"dose: 120.0 mg/kg/injection, schedule: Q01DX005 (ip), vehicle: saline",100 % of control
same,T/C,"dose: 240.0 mg/kg/injection, schedule: Q01DX005 (ip), vehicle: saline",106 % of control
OCCN(CCO)Cc1nc2cc(Cl)c(Cl)cc2[nH]1,T/C,[10],97 % of control
same,T/C,[11],112 % of control
same,T/C,"dose: 200.0 mg/kg/injection, schedule: Q01DX005 (ip), vehicle: saline",90 % of control
COc1c(O)cc2c(c1O)C1OC(CO)C(O)C(O)C1OC2=O (configuration not stated),T/C,"dose: 12.75 mg/kg/injection, schedule: Q01DX005 (ip), vehicle: Klucel (hydroxypropylcellulose) (HPC)",100 % of control
same,T/C,"dose: 25.5 mg/kg/injection, schedule: Q01DX005 (ip), vehicle: Klucel (hydroxypropylcellulose) (HPC)",98 % of control
same,T/C,"dose: 51.0 mg/kg/injection, schedule: Q01DX005 (ip), vehicle: Klucel (hydroxypropylcellulose) (HPC)",97 % of control
same,T/C,"dose: 102.0 mg/kg/injection, schedule: Q01DX005 (ip), vehicle: Klucel (hydroxypropylcellulose) (HPC)",100 % of control
O=C1CCCc2cc3c(nc21)C(=O)CCC3,T/C,[4],100 % of control
same,T/C,[5],100 % of control
same,T/C,[6],109 % of control
COC(=O)c1cc(=O)nc(NNC(C)=O)s1,T/C,[4],103 % of control
same,T/C,[5],96 % of control
same,T/C,[6],106 % of control
CCN(CC)CCOC(=O)Cc1cccc2c(=O)cc(-c3ccccc3)oc12,T/C,"dose: 12.5 mg/kg/injection, schedule: Q01DX009 (ip), vehicle: saline",120 % of control
same,T/C,"dose: 25.0 mg/kg/injection, schedule: Q01DX009 (ip), vehicle: saline",108 % of control and 97 % of control
same,T/C,[10],100 % of control
same,T/C,"dose: 100.0 mg/kg/injection, schedule: Q01DX001 (ip), vehicle: saline",102 % of control
same,T/C,[11],108 % of control
same,T/C,"dose: 100.0 mg/kg/injection, schedule: Q04DX002 (ip), vehicle: saline",107 % of control
same,T/C,[3],107 % of control
same,T/C,"dose: 100.0 mg/kg/injection, schedule: Q08DX002 (ip), vehicle: saline",111 % of control
same,T/C,"dose: 200.0 mg/kg/injection, schedule: Q01DX001 (ip), vehicle: saline",114 % of control
same,T/C,"dose: 200.0 mg/kg/injection, schedule: Q04DX002 (ip), vehicle: saline",110 % of control
same,T/C,"dose: 200.0 mg/kg/injection, schedule: Q08DX002 (ip), vehicle: saline",117 % of control
same,T/C,"dose: 300.0 mg/kg/injection, schedule: Q01DX001 (ip), vehicle: saline",117 % of control
same,T/C,"dose: 300.0 mg/kg/injection, schedule: Q04DX002 (ip), vehicle: saline",114 % of control
same,T/C,"dose: 300.0 mg/kg/injection, schedule: Q08DX002 (ip), vehicle: saline",112 % of control
same,T/C,"dose: 400.0 mg/kg/injection, schedule: Q01DX001 (ip), vehicle: saline",116 % of control
Cc1ccccc1-n1cccc1C(=O)O,T/C,[7],95 % of control
same,T/C,[8],93 % of control
same,T/C,[9],99 % of control
CCC(=O)Nc1ccc(C(=O)C(C)Br)cc1 (configuration not stated),T/C,"dose: 6.25 mg/kg/injection, schedule: Q01DX009 (ip), vehicle: saline with Tween-80",108 % of control
same,T/C,"dose: 12.5 mg/kg/injection, schedule: Q01DX009 (ip), vehicle: saline with Tween-80",115 % of control
same,T/C,"dose: 25.0 mg/kg/injection, schedule: Q01DX009 (ip), vehicle: saline with Tween-80",117 % of control
